Experimental data published in patent publication US8697641B2, “4-amino-4-oxobutanoyl peptide cyclic analogues, inhibitors of viral replication” (Achillion Pharmaceuticals, Inc., priority 2008, dated 2014).

Each molecule was assayed on Hepatitis C replicon (assay: HCV replicon assay (NPT ELISA readout) in Huh-7 replicon-containing cells). Details: HCV replicon in Huh-7 cells, three days incubation.
Type: cell-based, Hepatitis C virus
Procedure: Compounds claimed herein are tested for the ability to inhibit viral replication of the Hepatitis C replicon in cultured cells in which the HCV replicon construct has been incorporated. The HCV replicon system was described by Bartenschlager, et. al (Science, 285, pp. 110-113 (1999)). The replicon system is predictive of in vivo anti-HCV activity; compounds that are active in humans uniformly evidence activity in the replicon assay.
In this assay HCV replicon containing cells are treated with different concentrations of the test compound to ascertain the ability of the test compound to suppress replication of the HCV replicon. As a positive control, HCV replicon-containing cells are treated with different concentrations of interferon alpha, a known inhibitor of HCV replication. The replicon assay system includes Neomycin Phosphotransferase (NPT) as a component of the replicon itself in order to detect the transcription of replicon gene products in the host cell. Cells in which the HCV replicon is actively replicating have high levels of NPT; the level of NPT is proportional to HCV replication. […] The NPT level of each sample is measured using a captured ELISA.
A protocol for testing compounds for the ability to inhibit viral replication of the Hepatitis C replicon cultured cells in which the replicon construct has been incorporated, follows.
The HCV replicon contains, 5′-3′, the HCV-IRES, the neomycin phosphotransferase (neo) gene, the IRES of encephalomyocarditis virus, which directs translation of HCV sequences NS3 to NS5B, and the 3′-NTR. The sequence of the HCV replicon has been deposited in GenBank (Accession no. AJ242652).
The replicon is transfected into Huh-7 cells using standard methods such as electroporation.
The equipment and materials include, but are not limited to, Huh-7 HCV replicon-containing cells, maintenance media (DMEM (Dulbecco's modified Eagle media) supplemented with 10% FBS, L-glutamine, non-essential amino acids, penicillin (100 units/ml), streptomycin (100 micrograms/ml), and 500 micrograms/ml of Geneticin (G418), screening media (DMEM supplemented with 10% FBS, L-glutamine, non-essential amino acids, penicillin (100 units/ml) and streptomycin (100 micrograms/ml)), 96 well tissue culture plates (flat bottom), 96 well plates (U bottom for drug dilution), Interferon alpha for positive control, fixation reagent (such as methanol:acetone), primary antibody (rabbit anti-NPTII), secondary antibody: Eu-N1 l, and enhancement solution.
The cells are then seeded onto 96-well plates at a density of 6000-7500 cells/100 microliters/well (6-7.5×10^5 cells/10 ml/plate). The plates are then incubated at 37° C. in a 5% CO2 incubator.
HCV replicon-containing cells are rinsed with once PBS once; 2 mls of trypsin are then added. Cells are incubated at 37° C. in a 5% CO2 incubator for 3-5 minutes. 10 mls of complete medium is added to stop the reaction. Cells are blown gently, put into a 15 ml tube, and spun at 1200 rpm for four minutes. The trypsin/medium solution is removed and 5 mls of medium (500 ml DMEM (high glucose)) from BRL catalog #12430-054; 50 mls 10% FBS, 5% Geneticin G418 (50 mg/ml, BRL catalog #10131-035), 5 ml MEM non-essential amino acids (100×BRL #11140-050) and 5 ml pen-strep (BRL #15140-148) is added. The cells and media are mixed carefully
Cells are plated with screening medium (500 ml DMEM (BRL #21063-029), 50 ml FBS (BRL #10082-147) and 5 ml MEM non-essential amino acid (BRL #11140-050) at 6000-7500 fcells/100 μl/well of 96 well plate (6-7.5×10^5 cells/10 ml/plate). Plates are placed into 37° C. 5% CO2 incubator overnight.
The following morning, drugs (test compounds or interferon alpha) are diluted in 96 well U bottom plates with media or DMSO/media, depending on the final concentration chosen for screening. Generally for 6 concentrations of each test compounds ranging from 10 micromolar to 0.03 micromolar are applied. […]
Molecule `COc1ccc2c(O[C@@H]3C[C@H]4C(=O)N[C@]5(C(=O)NS(=O)(=O)C6CC6)C[C@H]5CCCCCCC[C@H](CC(=O)N5CCCCC5)C(=O)N4C3)cc(-c3ccccc3)nc2c1` [Compound 51, (2R,6R,13aR, 14aR,16aS)-N-(cyclopropylsulfonyl)-2-(7-methoxy-2-phenylquinolin-4-yloxy)-5,16-dioxo-6-(2-oxo-2-(piperidin-1-yl)ethyl) octadecahydrocyclopropa [e]pyrrolo[1,2-a][1,4] diazacyclopentadecine-14a-carboxamide] has an EC50 of less than 1000 nM.
For `COc1ccc2c(O[C@@H]3C[C@H]4C(=O)N[C@H](C(=O)NS(=O)(=O)C5CC5)CCCCCCCCC[C@H](CC(=O)N5CCCCC5)C(=O)N4C3)cc(-c3ccccc3)nc2c1` [Compound 52, (3S,13R,17R,18aS)-N-(cyclopropylsulfonyl)-17-(7-methoxy-2-phenylquinolin-4-yloxy)-1,14-dioxo-13-(2-oxo-2-(piperidin-1-yl)ethyl) octadecahydropyrrolo [1,2-a][1,4] diazacyclohexadecine-3-carboxamide], the EC50 was 1000 to 10000 nM.

Same assay, conditions: Hepatitis C virus, 72 h; HCV replicon in Huh-7 cells, three days incubation
Molecule `CCOC(=O)C12CC1/C=C\CCCCC[C@@H](CC(=O)N1CCCCC1)C(=O)N1C[C@H](Oc3cc(-c4ccccc4)nc4cc(OC)ccc34)C[C@H]1C(=O)N2` (stereo partly drawn) [Compound 42, (2R,6S,16aS,Z)-ethyl 2-(7-methoxy-2-phenylquinolin-4-yloxy)-5,16-dioxo-6-(2-oxo-2-(piperidin-1-yl)ethyl)-1,2,3,5,6,7,8,9,10,11, 13a,14,14a,15,16,16a-hexadecahydrocyclopropa [e]pyrrolo[1,2-a][1,4] diazacyclopentadecine-14a-carboxylate] has an EC50 of 1000 to 10000 nM.
`COc1ccc2c(O[C@@H]3C[C@H]4C(=O)NC5(C(=O)O)CC5/C=C\CCCCC[C@@H](CC(=O)N5CCCCC5)C(=O)N4C3)cc(-c3ccccc3)nc2c1` (stereo partly drawn) [Compound 43, (2R,6S,16aS,Z)-2-(7-methoxy-2-phenylquinolin-4-yloxy)-5,16-dioxo-6-(2-oxo-2-(piperidin-1-yl)ethyl)-1,2,3,5,6,7,8,9,10,11, 13a,14,14a,15,16,16a-hexadecahydrocyclopropa [e]pyrrolo[1,2-a][1,4] diazacyclopentadecine-14a-carboxylic acid] showed an EC50 of 1000 to 10000 nM.
For `COc1ccc2c(O[C@@H]3C[C@H]4C(=O)N[C@]5(C(=O)O)C[C@H]5/C=C\CCCCC[C@H](CC(=O)N5CCCCC5)C(=O)N4C3)cc(-c3ccccc3)nc2c1` [Compound 44, (2R,6R,13aS,14aR, 16aS,Z)-2-(7-methoxy-2-phenylquinolin-4-yloxy)-5,16-dioxo-6-(2-oxo-2-(piperidin-1-yl)ethyl)-1,2,3,5,6,7,8,9,10,11, 13a,14,14a,15,16,16a-hexadecahydrocyclopropa [e]pyrrolo[1,2-a][1,4] diazacyclopentadecine-14a-carboxylic acid], the EC50 was greater than 10000 nM.
`CCOC(=O)[C@@]12C[C@H]1/C=C\CCCCC[C@H](CC(=O)N1CCCCC1)C(=O)N1C[C@H](Oc3cc(-c4ccccc4)nc4cc(OC)ccc34)C[C@H]1C(=O)N2` [Compound 45, (2R,6R,13aS,14aR, 16aS,Z)-ethyl 2-(7-methoxy-2-phenylquinolin-4-yloxy)-5,16-dioxo-6-(2-oxo-2-(piperidin-1-yl)ethyl)-1,2,3,5,6,7,8,9,10,11, 13a,14,14a,15,16,16a-hexadecahydrocyclopropa [e]pyrrolo[1,2-a][1,4] diazacyclopentadecine-14a-carboxylate] showed an EC50 greater than 10000 nM.
Molecule `CCOC(=O)[C@@]12C[C@H]1/C=C\CCCCC[C@H](CC(=O)OC(C)(C)C)C(=O)N1C[C@H](Oc3cc(-c4ccccc4)nc4cc(OC)ccc34)C[C@H]1C(=O)N2` [Compound 46, (2R,6R,13aS,14aR, 16aS,Z)-ethyl 6-(2-tert-butoxy-2-oxoethyl)-2-(7-methoxy-2-phenylquinolin-4-yloxy)-5,16-dioxo-1,2,3,5,6,7,8,9,10,11, 13a,14,14a,15,16,16a-hexadecahydrocyclopropa [e]pyrrolo[1,2-a][1,4] diazacyclopentadecine-14a-carboxylate] has an EC50 greater than 10000 nM.
Work on `CCOC(=O)[C@]12C[C@@H]1/C=C\CCCCC[C@H](CC(=O)OC(C)(C)C)C(=O)N1C[C@H](Oc3cc(-c4ccccc4)nc4cc(OC)ccc34)C[C@H]1C(=O)N2` [Compound 47, (2R,6R,13aR,14aS, 16aS,Z)-ethyl 6-(2-tert-butoxy-2-oxoethyl)-2-(7-methoxy-2-phenylquinolin-4-yloxy)-5,16-dioxo-1,2,3,5,6,7,8,9,10,11, 13a,14,14a,15,16,16a-hexadecahydrocyclopropa [e]pyrrolo[1,2-a][1,4] diazacyclopentadecine-14a-carboxylate] yielded an EC50 of less than 1000 nM.
Work on `COc1ccc2c(O[C@@H]3C[C@H]4C(=O)N[C@]5(C(=O)NS(=O)(=O)C6CC6)C[C@H]5/C=C\CCCCC[C@H](CC(=O)N5CCCCC5)C(=O)N4C3)cc(-c3ccccc3)nc2c1` [Compound 48, (2R,6R,13aS, 14aR,16aS,Z)-N-(cyclopropylsulfonyl)-2-(7-methoxy-2-phenylquinolin-4-yloxy)-5,16-dioxo-6-(2-oxo-2-(piperidin-1-yl)ethyl)-1,2,3,5,6,7,8,9,10,11, 13a,14,14a,15,16,16a-hexadecahydrocyclopropa [e]pyrrolo[1,2-a][1,4] diazacyclopentadecine-14a-carboxamide] yielded an EC50 of 1000 to 10000 nM.
For `COc1ccc2c(O[C@@H]3C[C@H]4C(=O)N[C@@]5(C(=O)NS(=O)(=O)C6CC6)C[C@@H]5/C=C\CCCCC[C@H](CC(=O)N5CCCCC5)C(=O)N4C3)cc(-c3ccccc3)nc2c1` [Compound 49, (2R,6R,13aR, 14aS,16aS,Z)-N-(cyclopropylsulfonyl)-2-(7-methoxy-2-phenylquinolin-4-yloxy)-5,16-dioxo-6-(2-oxo-2-(piperidin-1-yl)ethyl)-1,2,3,5,6,7,8,9,10,11, 13a,14,14a,15,16,16a-hexadecahydrocyclopropa [e]pyrrolo[1,2-a][1,4] diazacyclopentadecine-14a-carboxamide], the EC50 was 1000 to 10000 nM.
`O=C1NC2(C(=O)NS(=O)(=O)C3CC3)CC2/C=C\CCCCC[C@H](CC(=O)N2CCCCC2)C(=O)N2C[C@H](OC(=O)N3Cc4cccc(F)c4C3)C[C@@H]12` (stereo partly drawn) [Compound 50, (2R,6R,16aS,Z)-14a-(cyclopropylsulfonyl-carbamoyl)-5,16-dioxo-6-(2-oxo-2-(piperidin-1-yl)ethyl)-1,2,3,5,6,7,8,9,10,11, 13a,14,14a,15,16,16a-hexadecahydrocyclopropa [e]pyrrolo[1,2-a][1,4] diazacyclopentadecin-2-yl 4-fluoroisoindoline-2-carboxylate] gave an EC50 of less than 1000 nM.
`COc1ccc2c(O[C@@H]3C[C@H]4C(=O)N[C@H](C(=O)NS(=O)(=O)C5CC5)[C@@H](C)CCCCCCC[C@H](CC(=O)N5CCCCC5)C(=O)N4C3)cc(-c3ccccc3)nc2c1` [Compound 53, (3S,4S,12R,16R,17aS)-N-(cyclopropylsulfonyl)-16-(7-methoxy-2-phenylquinolin-4-yloxy)-4-methyl-1,13-dioxo-12-(2-oxo-2-(piperidin-1-yl)ethyl)hexadecahydro-1H-pyrrolo[1,2-a][1,4] diazacyclopentadecine-3-carboxamide] gave an EC50 of 1000 to 10000 nM.
In the case of `COc1ccc2c(O[C@@H]3C[C@H]4C(=O)N[C@@](C)(C(=O)NS(=O)(=O)C5CC5)CCCCCCCC[C@H](CC(=O)N5CCCCC5)C(=O)N4C3)cc(-c3ccccc3)nc2c1` [Compound 54, (3R,12R,16R,17aS)-N-(cyclopropylsulfonyl)-16-(7-methoxy-2-phenylquinolin-4-yloxy)-3-methyl-1,13-dioxo-12-(2-oxo-2-(piperidin-1-yl)ethyl)hexadecahydro-1H-pyrrolo[1,2-a][1,4] diazacyclopentadecine-3-carboxamide], the EC50 is reported as less than 1000 nM.
